One data set concerns the target T1, Androgen receptor (AR) (Homo sapiens, UniProt P10275, T878A).
T1 construct: 5.5×10^5 LNCap cells were injected into each well of a 6-well plate; endogenous in cells; host or cells: LNCaP
T1 sequence (P10275 1-920 T878A): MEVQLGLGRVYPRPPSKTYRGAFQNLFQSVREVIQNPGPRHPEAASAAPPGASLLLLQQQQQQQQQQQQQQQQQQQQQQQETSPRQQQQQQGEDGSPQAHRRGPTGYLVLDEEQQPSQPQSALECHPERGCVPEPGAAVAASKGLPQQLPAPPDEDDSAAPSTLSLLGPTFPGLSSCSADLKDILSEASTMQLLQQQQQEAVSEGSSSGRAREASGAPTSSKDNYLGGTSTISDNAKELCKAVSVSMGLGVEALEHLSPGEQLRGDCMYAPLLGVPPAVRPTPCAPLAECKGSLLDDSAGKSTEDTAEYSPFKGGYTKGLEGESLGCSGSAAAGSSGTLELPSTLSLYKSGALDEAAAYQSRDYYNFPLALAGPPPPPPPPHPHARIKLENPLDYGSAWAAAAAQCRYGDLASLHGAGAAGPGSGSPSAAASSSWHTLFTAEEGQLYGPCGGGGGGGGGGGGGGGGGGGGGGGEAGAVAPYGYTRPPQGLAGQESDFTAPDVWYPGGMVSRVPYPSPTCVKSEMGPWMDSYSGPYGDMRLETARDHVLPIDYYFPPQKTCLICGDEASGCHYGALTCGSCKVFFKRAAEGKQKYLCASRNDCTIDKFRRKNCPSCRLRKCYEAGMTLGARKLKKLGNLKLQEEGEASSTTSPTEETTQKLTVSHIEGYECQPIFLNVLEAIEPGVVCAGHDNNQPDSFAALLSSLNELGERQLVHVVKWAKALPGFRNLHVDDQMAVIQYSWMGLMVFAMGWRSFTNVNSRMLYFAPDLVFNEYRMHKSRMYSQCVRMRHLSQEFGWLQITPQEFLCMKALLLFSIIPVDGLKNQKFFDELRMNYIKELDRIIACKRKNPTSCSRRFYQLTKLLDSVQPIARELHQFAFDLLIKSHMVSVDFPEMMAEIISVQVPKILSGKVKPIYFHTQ
Briefly: Assessment of AR proteolytic activity (Western blotting of LNCap cell lysates). In kind it is cell-based. The settings on record: 24 hours of treatment, Western blotting quantified with Image J. Summed up: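 AR degradation read by Western blot densitometry on RIPA lysates (pH 7.5, protease inhibitor cocktail). Lysates came from LNCap cells, 5.5×10^5 per well, exposed to compound for 24 hours.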
On the technique in general: In western blotting, separated proteins are transferred to a membrane and probed.

In a further data set the test system is LNCaP cells. Briefly: Cytotoxicity assessment (Cell-titer-glo cell viability), LNCaP.
Where [1] appears, read: read-out: LNCAP (CC50), LNCaP cells, 6 days of treatment, Cell-titer-glo, vs DMSO.

Where two headings read alike, the source gives them in different places.

Usually CC50 stands for the concentration at which the toxic effect on the cells reaches its halfway point.

Protocol for LNCaP cells: In order to evaluate the androgen receptor (AR) cytotoxicity of the compounds according to the present invention, the following experiment was conducted. Specifically, 1.5×10^3 (LNCaP) or 4×10^3 (VCaP, 22RV1), respectively, of LNCaP, VCaP, and 22RV1 cells were injected into each well of a 96-well plate. The next day, each well was treated with the compound at a final concentration of 3 nM, 10 nM, 30 nM, 100 nM, 300 nM, 1 μM, 3 μM, and 10 μM. […] After 6 days of treatment, Cell-titer-glo (promega) was treated and reacted for 10 minutes, and cell viability was measured with a multimode plate reader (PerkinElmer, Inc.), and the change was quantified compared to when DMSO was treated.

With `CC1(C)C(NC(=O)c2ccc(OCCOCCOCCOCCOCCOCCCCNC(=O)C3CN(c4ccc5nnn(C6CCC(=O)NC6=O)c(=O)c5c4)C3)cc2)C(C)(C)C1Oc1ccc(C#N)c(Cl)c1` (stereo not drawn) [Example 16, N-(1-(4-(((1r,3r)-3-(3-chloro-4-cyanophenoxy)-2,2,4,4-tetramethylcyclobutyl)carbamoyl)phenoxy)-3,6,9,12,15-pentaoxanonadecan-19-yl)-1-(3-(2,6-dioxopiperidin-3-yl)-4-oxo-3,4-dihydrobenzo[d][1,2,3]triazin-6-yl)azetidine-3-carboxamide], the “Degradation (1 μM treated in LNCaP, % AR remaining)” value on Androgen receptor (AR) was found to be 12.6%. The CC50 with LNCaP cells (setting [1]) came to 1.95 µM.
On to `CC1(C)[C@H](NC(=O)c2ccc(N3CCN(C4CC5(CCN(C(=O)COc6ccc7nnn(C8CCC(=O)NC8=O)c(=O)c7c6)CC5)C4)CC3)cc2)C(C)(C)[C@H]1Oc1ccc(C#N)c(Cl)c1` (stereo partly drawn) [Example 18, N-((1r,3r)-3-(3-chloro-4-cyanophenoxy)-2,2,4,4-tetramethylcyclobutyl)-4-(4-(7-(2-((3-(2,6-dioxopiperidin-3-yl)-4-oxo-3,4-dihydrobenzo[d][1,2,3]triazin-6-yl)oxy)acetyl)-7-azaspiro[3.5]nonan-2-yl)piperazin-1-yl)benzamide], for which the “Degradation (1 μM treated in LNCaP, % AR remaining)” value on Androgen receptor (AR) came to 23%. Further, the CC50 with LNCaP cells (setting [1]) stood at 0.196 µM.
In the case of `CC1(C)[C@H](NC(=O)c2ccc(OCCOCCOCCOCCOCCOCCNc3cccc4nnn(C5CCC(=O)NC5=O)c(=O)c34)cc2)C(C)(C)[C@H]1Oc1ccc(C#N)c(Cl)c1` (stereo partly drawn) [Example 1, N-((1r,3r)-3-(3-chloro-4-cyanophenoxy)-2,2,4,4-tetramethylcyclobutyl)-4-((17-((3-(2,6-dioxopiperidin-3-yl)-4-oxo-3,4-dihydrobenzo[d][1,2,3]triazin-5-yl)amino)-3,6,9,12,15-pentaoxaheptadecyl)oxy)benzamide], the “Degradation (1 μM treated in LNCaP, % AR remaining)” value at Androgen receptor (AR) was found to be 72%. In addition, the CC50 with LNCaP cells (setting [1]) was 5.69 µM.
On to `CC1(C)C(NC(=O)c2ccc(OCCOCCOCCOCCOCCOCCCCNC(=O)C3CCN(c4ccc5nnn(C6CCC(=O)NC6=O)c(=O)c5c4)CC3)cc2)C(C)(C)C1Oc1ccc(C#N)c(Cl)c1` (stereo not drawn) [Example 15, N-(1-(4-(((1r,3r)-3-(3-chloro-4-cyanophenoxy)-2,2,4,4-tetramethylcyclobutyl)carbamoyl)phenoxy)-3,6,9,12,15-pentaoxanonadecan-19-yl)-1-(3-(2,6-dioxopiperidin-3-yl)-4-oxo-3,4-dihydrobenzo[d][1,2,3]triazin-6-yl)piperidine-4-carboxamide], for which, on Androgen receptor (AR), the “Degradation (1 μM treated in LNCaP, % AR remaining)” value is 13.6%. Moreover, the CC50 in the data set with LNCaP cells (setting [1]) came to 1.31 µM.
For `CC1(C)[C@H](NC(=O)c2ccc(N3CCN(C4CC5(CCN(C(=O)C6CN(c7ccc8nnn(C9CCC(=O)NC9=O)c(=O)c8c7)C6)CC5)C4)CC3)cc2)C(C)(C)[C@H]1Oc1ccc(C#N)c(Cl)c1` (stereo partly drawn) [Example 21, N-((1r,3r)-3-(3-chloro-4-cyanophenoxy)-2,2,4,4-tetramethylcyclobutyl)-4-(4-(7-(1-(3-(2,6-dioxopiperidin-3-yl)-4-oxo-3,4-dihydrobenzo[d][1,2,3]triazin-6-yl)azetidine-3-carbonyl)-7-azaspiro[3.5]nonan-2-yl)piperazin-1-yl)benzamide], the “Degradation (1 μM treated in LNCaP, % AR remaining)” value on Androgen receptor (AR) was 21%. Moreover, the CC50 with LNCaP cells (setting [1]) came to 0.312 µM.
Take `CC1(C)[C@H](NC(=O)c2ccc(N3CCN(CC4CCN(C(=O)COc5ccc6nnn(C7CCC(=O)NC7=O)c(=O)c6c5)CC4)CC3)cc2)C(C)(C)[C@H]1Oc1ccc(C#N)c(Cl)c1` (stereo partly drawn) [Example 13, N-((1r,3r)-3-(3-chloro-4-cyanophenoxy)-2,2,4,4-tetramethylcyclobutyl)-4-(4-((1-(2-((3-(2,6-dioxopiperidin-3-yl)-4-oxo-3,4-dihydrobenzo[d][1,2,3]triazin-6-yl)oxy)acetyl)piperidin-4-yl)methyl)piperazin-1-yl)benzamide]: the remaining activity at 1 µM on Androgen receptor (AR) (read-out: Degradation (1 μM treated in LNCaP, % AR remaining)) amounted to 8.3%. Besides, the CC50 in the data set on LNCaP cells (Homo sapiens, LNCaP, 144 h, read-out: LNCAP (CC50, μM)) was determined as 0.803 µM.

For the origin of these results see patent publication US20240018123A1, “COMPOUND FOR INHIBITING OR DISINTEGRATING ANDROGEN RECEPTOR, AND PHARMACEUTICAL USE THEREOF” (KOREA RESEARCH INSTITUTE OF CHEMICAL TECHNOLOGY, priority 2020, published 2024).
